This test has as its system primed T cells. The test is described as follows: total TGF-β production by TCR-stimulated primed T cells, Mv1Lu (CCL-64) bioassay. In kind it is cell-based, mouse (BALB/c). The settings on record: 48 h. The method, then:
TGF-β bioassay. To measure total TGF-β, 100 μl of conditioned media was pretreated according to standard procedures (24) with 10 μl 1N HCL to lower the media pH to 2 and incubated for 1 hour at 4° C. The acid was neutralized with 20 μl of a 1:1 mixture of 1N NaOH: 1M HEPES returning the culture supernatant to a pH 7.3. The transiently acidified conditioned media was then used in the Mv1Lu assay; diluted 1:4 in EMEM+0.5% FBS. To the wells of a Falcon 96-well flat-bottom plate, 100 μl of diluted transiently acidified samples were added with 100 μl of 1×10^5 Mv1Lu cells (CCL-64; ATCC, Rockville, Md.). The plate was incubated for 20 hours at 37° C., 5% CO2 followed by the addition of 20 μl of 50 μCi/ml 3H-thymidine and the plate was incubated for an additional 4 hours. Supernatant was discarded and 50 μl of 10× Trypsin-EDTA (Biowhittaker, Walkersville, Md.) solution was added to each well and the plate was incubated for 15 minute at 37° C. The cells were collected onto filter paper using a Tomtec Plate Harvester 96 and counts per minute (CPM) of incorporation 3H-thymidine was measured using a Wallac 1205 Betaplate Liquid Scintillation Counter. Cultures of known amounts of purified activated TGF-β1, 20 ng/ml to 0.2 pg/ml (R&:D Systems), were prepared in the same plate for calculating a standard curve to quantify the concentration of total TGF-β in the samples.
Primed T Cell In Vitro Assays. From draining lymph nodes of BALB/c mice immunized 7 days previously with MT-Ag, primed T cells were isolated using CD3 enrichment columns (R&D Systems). T-cells (4×10^5 cells) suspended in serum-free media were added to the wells of a 96 well, round bottom plate (Corning). To the wells were added α-MSH (30 pg/ml) and anti-TCR antibody (2C11; 1 μg/ml) diluted in serum-free culture media. Various concentrations of TGF-β1 or TGF-β2 in media were added. In a second set of experiments TGF-β1 or TGF-β2 at a fixed concentration of 5 ng/ml were added to the wells at various times (0, 2, 4 and 6 hours) after addition of anti-TCR antibody. The cultures were incubated for 24 hours and 0.5 μCi of 3H-thymidine (NEM, Boston, Mass.) was added to the wells and the cultures were incubated for an additional 24 hours. The cells were collected and incorporated radiolabeled was measured by scintillation counting. Production of TGF-β by the treated primed T cells was done by centrifuging the culture plates 24 hours after the addition of anti-TCR antibody, removing the supernatant, washing the cultures once and adding fresh media. […]
FIG. 4 is a bar graph of TGF-β production by primed T cells TCR-stimulated in the presence of α-MSH. […] Significance (p=0.05) was determined by Student's t-test between TGF-β concentrations in cultures of activated α-MSH treated T cells and T cells activated in the absence of α-MSH. […]

From patent US20060127400A1, “Activation of regulatory T cells by alpha-melanocyte stimulating hormone” (THE SCHEPENS EYE RESEARCH INSTITUTE, INC., priority 1999, published 2006) come the findings set out here.

“Also recorded” adds a separate entry of the source. No end group written: not given here.

Regarding “α-melanocyte stimulating hormone (SYSMEHFRWGKPV; not fully specified; ends and bridges not checked; UniProt P01189 138-150, looked up) [α-MSH, synthetic α-MSH (Peninsula Laboratories); thirteen-amino acid neuropeptide derived from POMC]”, the “TGF-β production by TCR-stimulated primed T cells” value (serum-free, transiently acidified supernatant) was “enhanced levels; also recorded: significantly enhanced”. Further, under “TCR-stimulated T cells”, the “threshold of α-MSH concentration needed to induce TGF-β1 production” value came to 30 pg/mL.
